Columns and labels:
[1] = system: EBC-1 cells; experiment: EBC-1 cell proliferation, CellTiter-Glo Luminescent Cell Viability Assay; format: cell-based; details: Homo sapiens, 72 h incubation, read-out: IC50 (nM) against EBC-1 cells
Procedure: Test Example 3: Inhibitory Activity of Compounds disclosed herein against EBC-1 Cells
Test method: the inhibitory activity of the compounds against EBC-1 cell proliferation was evaluated using CellTiter-Glo® Luminescent Cell Viability Assay Kit (Promega).
Test procedures: when thawing EBC-1 cells, the cell cryopreservation tube was shaken rapidly in a water bath at 37° C. to thaw the cells in 1 min. The cell suspension after thawing was mixed with RPMI1640 culture medium containing 10% FBS and centrifuged for 5 min at 1000 rpm, and the supernatant was discarded. The cell pellet was suspended in 5 mL of complete culture medium. The suspension was placed in a cell culture flask with a bottom area of 25 cm^2, and cultured in a cell incubator at 37° C./95% humidity/5% CO2. Cell passage was performed when cell confluence reached about 80%. When the cells were passaged, the original cell suspension was directly made uniform by pipetting. 1/6 of the cell suspension was kept, added with 5 mL of new complete culture medium and then made uniform by pipetting. The cell culture flask was then placed in a cell incubator for further culturing. Cell plating was performed when the cell confluence reached about 80% again. With reference to the method for cell passage, 1/6 cell suspension was kept for further culturing when the cells were plated, and the remaining 5/6 of cell suspension was placed in a 15 mL centrifuge tube. Cell viability was detected by trypan blue exclusion using an IC1000 cell counter (Countstar) to ensure that cell viability was above 90%. Cell suspension at a density of 3.33×10^4 viable cells/mL was prepared using complete culture medium, and 90 μL of the cell suspension was added into 96-well cell culture plates, so that the cell density in the cell culture plates (day 0 plate and test compound plate) was 3000 viable cells/well. A control group that contains no cell or compound but only complete culture medium and a control group that contains no compound but cells were set. The cell plates were incubated overnight in a cell incubator. […] 10 μL of the above solution was added into a corresponding cell culture plate to ensure that the initial concentration of the compound was 10 μM, the dilution factor of adjacent concentration was 3.16, and the DMSO content in the cell culture plate was 0.1%. The cell plates were then incubated in the cell incubator for 72 h. During detection, CellTiter-Glo reagent (namely CellTiter-Glo® […] cell viability test reagent, Promega, Cat. No. G7572, Lot. No. 0000310975) was melted, and the cell plate was equilibrated at room temperature for 30 min. The cell plate was added with the CellTiter-Glo reagent at 100 μL per well, and then shaken on a QB-9001 microporous quick shaker (Kylin-Bell) for 5 min to fully lyse the cells. The cell plate was left to stand at room temperature for 20 min to stabilize luminescence signals, and the luminescence value of each well was scanned by a Spectramax M3 multi-functional microplate reader (Molecular Devices) at full wavelength.
Test samples: example compounds of the present invention and cabozantinib (positive control compound).
(§1) Data analysis: cell viability was calculated for compounds at various concentrations using the following formula:
(§2) Cell viability(%)=(Lumtest compound−Lumculture solution control)/(Lumcell control−Lumculture solution control)×100%,
(§3) where Lum refers to the luminescence value of each well of the test compound plate read by the multi-functional microplate reader.
(§4) The data were analyzed using GraphPad Prism 7.0 software, fitted with nonlinear S-curve regression to give dose-response curves, and IC50 values were calculated therefrom.

[2] = molecular target: T1, Ba/F3 Axl cells (Homo sapiens, UniProt P30530); experiment: Ba/F3 Axl cell proliferation, CellTiter-Glo Luminescent Cell Viability Assay; format: cell-based; details: 100 ng/mL rhGas6, 72 h incubation, read-out: IC50 (nM) against Ba/F3 Axl cells
T1 sequence (P30530 1-894): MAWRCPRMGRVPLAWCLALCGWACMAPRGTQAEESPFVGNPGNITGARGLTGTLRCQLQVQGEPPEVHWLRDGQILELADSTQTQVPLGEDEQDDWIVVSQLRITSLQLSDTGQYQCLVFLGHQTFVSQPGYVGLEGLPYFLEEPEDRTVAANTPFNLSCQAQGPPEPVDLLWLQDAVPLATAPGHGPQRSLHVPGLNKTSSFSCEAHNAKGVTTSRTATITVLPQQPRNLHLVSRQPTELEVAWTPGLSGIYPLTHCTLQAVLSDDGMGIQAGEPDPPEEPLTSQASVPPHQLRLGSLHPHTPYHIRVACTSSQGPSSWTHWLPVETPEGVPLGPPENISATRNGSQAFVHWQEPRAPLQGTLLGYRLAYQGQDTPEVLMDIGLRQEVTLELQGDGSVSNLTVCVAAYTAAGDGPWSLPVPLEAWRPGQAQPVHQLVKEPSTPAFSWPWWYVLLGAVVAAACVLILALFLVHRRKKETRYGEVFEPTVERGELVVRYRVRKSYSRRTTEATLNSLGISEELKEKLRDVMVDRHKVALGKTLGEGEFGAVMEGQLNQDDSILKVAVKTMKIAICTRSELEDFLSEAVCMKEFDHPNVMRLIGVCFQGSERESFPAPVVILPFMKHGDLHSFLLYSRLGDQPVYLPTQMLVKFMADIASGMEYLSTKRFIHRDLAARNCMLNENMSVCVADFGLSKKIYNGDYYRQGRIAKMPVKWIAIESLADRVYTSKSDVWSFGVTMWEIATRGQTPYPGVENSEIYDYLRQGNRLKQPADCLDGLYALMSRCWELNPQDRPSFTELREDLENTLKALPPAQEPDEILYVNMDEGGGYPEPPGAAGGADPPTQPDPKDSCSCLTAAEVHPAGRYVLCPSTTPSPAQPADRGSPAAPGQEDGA
Procedure: Test method: the inhibitory activity of the compounds against Ba/F3 Axl cell proliferation was evaluated using CellTiter-Glo® Luminescent Cell Viability Assay Kit (Promega).
Test procedures: when thawing Ba/F3 Axl cells, the cell cryopreservation tube was shaken rapidly in a water bath at 37° C. to thaw the cells in 1 min. The cell suspension after thawing was mixed with RPMI1640 culture medium containing 10% FBS and centrifuged for 5 min at 1000 rpm, and the supernatant was discarded. The cell pellet was suspended in 5 mL of complete culture medium. […] Cell passage was performed at a cell density of 2×10^6 viable cells/mL. When the cells were passaged, the original cell suspension was directly made uniform by pipetting. 1/10 (namely 0.5 mL) of the cell suspension was kept, added with 4.5 mL of new complete culture medium and then made uniform by pipetting. The cell culture flask was then placed in a cell incubator for further culturing. Cell plating was performed when the cell confluence reached 2×10^6 viable cells/mL again. With reference to the method for cell passage, 1/10 (namely 0.5 mL) of the cell suspension was kept for further culturing when the cells were plated, and the remaining cell suspension was placed in a 15 mL centrifuge tube. The supernatant was discarded after centrifugation, and 5 mL of complete culture medium was used to resuspend the cells. […] A control group that contains no cell or compound but only complete culture medium and a control group that contains no compound but cells were set. The cell plates were incubated overnight in a cell incubator. […] The cell plates were then incubated in the cell incubator for 72 h. […] The cell plate was left to stand at room temperature for 20 min to stabilize luminescence signals, and the luminescence value of each well was scanned by a Spectramax M3 multi-functional microplate reader (Molecular Devices) at full wavelength.
Test samples: example compounds of the present invention and bemcentinib (positive control compound).
as §1, §2, §3, §4

| Structure (SMILES) | IC50 [1] [nM] | GI50 [2] [nM] |
| --- | --- | --- |
| COc1cc2nccc(Oc3ccc(NC(=O)c4cn(C(C)C)c(C#N)c(-c5ccc(F)cc5)c4=O)cc3F)c2cc1OC [Example 24, 6-cyano-N-(4-((6,7-dimethoxyquinolin-4-yl)oxy)-3-fluoro-phenyl)-5-(4-fluorophenyl)-1-isopropyl-4-oxo-1,4-dihydropyridine-3-carboxamide] | 45 | 0.36 |
| CC(C)n1cc(C(=O)Nc2ccc(-c3cc(-c4cnn(C5CCN(C)CC5)c4)cnc3N)c(F)c2)c(=O)c(-c2ccc(F)cc2)c1C#N [Example 7, N-(4-(2-amino-5-(1-(1-methylpiperidin-4-yl)-1H-pyrazol-4-yl)-pyridin-3-yl)-3-fluorophenyl)-6-cyano-5-(4-fluorophenyl)-1-isopropyl-4-oxo-1,4-dihydro-pyridine-3-carboxamide] | 27 |  |
| CC(C)n1cc(C(=O)Nc2ccc(-c3cc(-c4cnn(C5CCNCC5)c4)cnc3N)c(F)c2)c(=O)c(-c2ccc(F)cc2)c1C#N [Example 2, N-(4-(2-amino-5-(1-(piperidin-4-yl)-1H-pyrazol-4-yl)pyridin-3-yl)-3-fluorophenyl)-6-cyano-5-(4-fluorophenyl)-1-isopropyl-4-oxo-1,4-dihydropyridine-3-carboxamide] | 24 |  |
| CCn1cc(-c2cnc(N)c(-c3cc(F)c(NC(=O)c4cn(C(C)C)c(C#N)c(-c5ccc(F)cc5)c4=O)cc3F)c2)cn1 [Example 33, N-(4-(2-amino-5-(1-ethyl-1H-pyrazol-4-yl)pyridin-3-yl)-2,5-difluorophenyl)-6-cyano-5-(4-fluorophenyl)-1-isopropyl-4-oxo-1,4-dihydropyridine-3-carboxamide] |  | 0.23 |
| [2H]C([2H])([2H])n1cc(-c2cnc(N)c(-c3cc(F)c(NC(=O)c4cn(C(C)C)c(C#N)c(-c5ccc(F)cc5)c4=O)cc3F)c2)cn1 [Example 34, N-(4-(2-amino-5-(1-methyl-d3-1H-pyrazol-4-yl)pyridin-3-yl)-2,5-difluorophenyl)-6-cyano-5-(4-fluorophenyl)-1-isopropyl-4-oxo-1,4-dihydropyridine-3-carboxamide] |  | 0.28 |
| CC(C)n1cc(C(=O)Nc2cc(F)c(-c3cc(-c4cnn(C)c4)cnc3N)cc2F)c(=O)c(-c2ccc(F)cc2)c1C#N [Example 6, N-(4-(2-amino-5-(1-methyl-1H-pyrazol-4-yl)pyridin-3-yl)-2,5-difluorophenyl)-6-cyano-5-(4-fluorophenyl)-1-isopropyl-4-oxo-1,4-dihydropyridine-3-carboxamide] | 13 | 0.49 |
| CC(C)n1cc(C(=O)Nc2ccc(-c3cc(-c4cnn(C)c4)cnc3N)c(F)c2)c(=O)c(-c2ccc(F)cc2)c1C#N [Example 4, N-(4-(2-amino-5-(1-methyl-1H-pyrazol-4-yl)pyridin-3-yl)-3-fluorophenyl)-6-cyano-5-(4-fluorophenyl)-1-isopropyl-4-oxo-1,4-dihydropyridine-3-carboxamide] | 30 | 0.57 |
| CCn1cc(-c2cnc(N)c(-c3ccc(NC(=O)c4cn(C5CC5)c(C#N)c(-c5ccc(F)cc5)c4=O)cc3F)c2)cn1 [Example 10, N-(4-(2-amino-5-(1-ethyl-1H-pyrazol-4-yl)pyridin-3-yl)-3-fluorophenyl)-6-cyano-5-(4-fluorophenyl)-1-cyclopropyl-4-oxo-1,4-dihydropyridine-3-carboxamide] | 208 |  |
| CCn1cc(-c2cnc(N)c(-c3ccc(NC(=O)c4cn(C(C)C)c(C#N)c(-c5ccc(F)cc5)c4=O)cc3F)c2)cn1 [Example 3, N-(4-(2-amino-5-(1-ethyl-1H-pyrazol-4-yl)pyridin-3-yl)-3-fluoro-phenyl)-6-cyano-5-(4-fluorophenyl)-1-isopropyl-4-oxo-1,4-dihydropyridine-3-carboxamide] | 22 | 0.29 |
| COc1cc2nccc(Oc3ccc(NC(=O)c4cn(C)c(C#N)c(-c5ccc(F)cc5)c4=O)cc3F)c2cc1OC [Example 21, 6-cyano-N-(4-((6,7-dimethoxyquinolin-4-yl)oxy)-3-fluoro-phenyl)-5-(4-fluorophenyl)-1-methyl-4-oxo-1,4-dihydropyridine-3-carboxamide] | 109 | 0.29 |

From patent US20210355107A1, “MULTI-SUBSTITUTED PYRIDONE DERIVATIVES AND MEDICAL USE THEREOF” (Beijing Yuezhikangtai Biomedicines Co., Ltd., priority 2018, published 2021)
